Assay results taken from patent US20090208936A1, “IDENTIFICATION OF MOLECULAR INTERACTIONS AND THERAPEUTIC USES THEREOF” (Univeristy of Florida Research Foundations Inc., priority 2005, published 2009).
pKd: −log10 of the molar value. {6-FAM} = 6-carboxyfluorescein label; {Dabcyl} = Dabcyl quencher

Experiments:
[1] = molecular target: T1, α-thrombin (Homo sapiens, UniProt P00734); assay: FRET-based signaling aptamer binding to α-thrombin (6-FAM quenching); settings: 100 nM aptamer, 500 nM α-thrombin
T1 construct: Human oa-thrombin (M.W. ˜36.7 kDa); purchased Haematologic Technologies Inc. (Essex Junction, Vt.)
Text: Dye-labeled aptamers were obtained from Integrated DNA Technologies, Inc. (Coralville, Iowa). The sequences of the 15mer and 27mer thrombin-aptamer are 5′-GGT TGG TGT GGT TGG-3′ (SEQ ID NO 1), and 5′-ACCCGTGGTAGGGTAGGATGGGGTGGT-3′ (SEQ ID NO 2) respectively. For FRET-based assays, both aptamers were dual-labeled with 6-FAM at the 5′ end and Dabcyl at the 3′ end. For fluorescence anisotropy assays, both aptamer sequences were labeled with only TAMRA at the 3′ end. A control 15mer aptamer was labeled with only 6-FAM at the 3′ end. All aptamers were purified with HPLC. […]
Fluorescence measurements were performed on a Fluorolog-3 spectrofluorometer (Jobin Yvon Inc., Edison, N.J.). For FRET-based assays, the fluorescence of 6-FAM was monitored with an excitation wavelength of 488 mn and an emission wavelength of 515 nm. For anisotropy-based experiments, the fluorescence of TAMRA was monitored with 555 nm as the excitation and 580 mn as the emission wavelength. […] In the aptamer/thrombin binding experiments, a very small volume of α-thrombin at a high concentration was added to an aptamer solution in the cuvette to make a molar ratio of aptamer and thrombin 1:1, and the fluorescence signals were recorded before and after the addition. […]

[2] = molecular target: T2, thrombin (Homo sapiens, UniProt P00734); assay: Kinetic studies of competitive assays (order of incubation, concentration dependence); format: binding; settings: 100 nM FQ-15Ap, 100 nM thrombin, 500 nM HirF, 5° C., 6-FAM fluorescence
T2 construct: Human oa-thrombin (M.W. ˜36.7 kDa); purchased Haematologic Technologies Inc. (Essex Junction, Vt.)
Description: Experiments were conducted in a 100 μL cuvette in the spectrofluorometer. While the detection system was running, the reaction samples were quickly mixed together. Data were recorded from the point of mixing to when the signal reached the plateau and stabilized. The reaction was regarded completed when the signal was at the plateau. […] The temperatures of reactions were maintained using a RTE-111 water bath/circulator (Neslab Instruments, Inc., Newington, N.H.).
In order to evaluate the possibilities of such false negatives in the assays, a comparison of the reaction rates of aptamer and prey proteins with thrombin were conducted. One direct way to conduct the comparison is to change the order the aptamer and the prey protein are incubated with thrombin. In one experiment, the prey protein was incubated with thrombin first and then the aptamer was used to displace the prey protein from the thrombin/protein complex. In another experiment, the order of adding aptamer and prey protein to thrombin was reversed. […]
Another indirect method was also used to study the effects of aptamer on thrombin/protein interactions. […] Different concentrations of AT3 were added to thrombin/T-15Ap incubation solution and the anisotropy of the aptamer was monitored as AT3 would displace T-15Ap.

[3] = molecular target: T1, α-thrombin; settings: stated as known property; cited from earlier work
[4] = molecular target: T1, α-thrombin; settings: reported value used for the calculation; read-out: reported 15mer aptamer-thrombin Kd/AT; cited from earlier work
[5] = molecular target: T1, α-thrombin; assay: Fluorescence anisotropy of TAMRA-labeled aptamer on binding α-thrombin; settings: aptamer/α-thrombin 1:1
Description: Fluorescence measurements were performed on a Fluorolog-3 spectrofluorometer (Jobin Yvon Inc., Edison, N.J.). For FRET-based assays, the fluorescence of 6-FAM was monitored with an excitation wavelength of 488 mn and an emission wavelength of 515 nm. For anisotropy-based experiments, the fluorescence of TAMRA was monitored with 555 nm as the excitation and 580 mn as the emission wavelength. Slit widths were varied to yield the best signals. All measurements were carried out in a 100 μL cuvette. In the aptamer/thrombin binding experiments, a very small volume of α-thrombin at a high concentration was added to an aptamer solution in the cuvette to make a molar ratio of aptamer and thrombin 1:1, and the fluorescence signals were recorded before and after the addition. […]
where the subscripts V and H refer to the orientation (vertical or horizontal) of the polarizers for the intensity measurements, with the first subscript indicating the position of the excitation polarizer and the second for the emission polarizer. G is the G-factor of the spectrofluorometer, which is calculated as G=IHV/IHH. […] For a certain dye, the G-factor would be measured and used throughout the experiments that used the same dye. […] For TAMRA, all intensities were measured at an emission wavelength of 580 nm with an excitation wavelength of 555 nm. […]

5′-(6-FAM)-ACCCGTGGTAGGGTAGGATGGGGTGGT-(Dabcyl)-3′ [FQ-27Ap]
6-FAM fluorescence change upon addition of α-thrombin [1]: decreased 6-FAM fluorescence

5′-(6-FAM)-GGT TGG TGT GGT TGG-(Dabcyl)-3′ (DNA GGTTGGTGTGGTTGG; DNA, 5' {6-FAM}, 3' {Dabcyl}, backbone not given here) [FQ-15Ap, 15mer thrombin aptamer dual-labeled with 6-FAM at the 5′ end and Dabcyl at the 3′ end]
kinetic profile depending on order of incubation with thrombin [2]: aptamer replacing HirF was even slower than HirF replacing aptamer
drop of 6-FAM fluorescence when excess α-thrombin was added ([1]; room temperature, 50 mM NaCl buffer): about 55%

5′-ACCCGTGGTAGGGTAGGATGGGGTGGT-3′ (DNA ACCCGTGGTAGGGTAGGATGGGGTGGT; chemistry not given here) [27Ap]
capability to inhibit the enzymatic activity of thrombin [3]: does not

5′-GGT TGG TGT GGT TGG-3′ [15Ap]
capability to inhibit the enzymatic activity of thrombin [3]: has the protein-inhibition capability
pKd [4]: 7.12

5′-GGT TGG TGT GGT TGG-(TAMRA)-3′ [T-15Ap]
increase of anisotropy on mixing with α-thrombin [5]: more than 30%
